Test results reported in ChEMBL document CHEMBL1122700, “Structure-activity, theoretical, and X-ray studies on the intramolecular interactions in a series of novel histamine H2 receptor antagonists” (1984).

Key:
Canis familiaris = assay: Inhibition of histamine-stimulated gastric acid secretion in dog after intravenous administration; assay type: functional; settings: Canis lupus familiaris, Stomach
[1] = target: Histamine H2 receptor (Cavia porcellus) (UniProt P47747); assay: Histamine H2 receptor affinity was assessed in vitro by antagonism of dimaprit-stimulated chronotropic response in guinea pig right atrium at 0.1 ug/mL; assay type: functional, tissue-based; settings: Cardiac atrium
Sequence of Histamine H2 receptor (Cavia porcellus) (P47747 whole entry): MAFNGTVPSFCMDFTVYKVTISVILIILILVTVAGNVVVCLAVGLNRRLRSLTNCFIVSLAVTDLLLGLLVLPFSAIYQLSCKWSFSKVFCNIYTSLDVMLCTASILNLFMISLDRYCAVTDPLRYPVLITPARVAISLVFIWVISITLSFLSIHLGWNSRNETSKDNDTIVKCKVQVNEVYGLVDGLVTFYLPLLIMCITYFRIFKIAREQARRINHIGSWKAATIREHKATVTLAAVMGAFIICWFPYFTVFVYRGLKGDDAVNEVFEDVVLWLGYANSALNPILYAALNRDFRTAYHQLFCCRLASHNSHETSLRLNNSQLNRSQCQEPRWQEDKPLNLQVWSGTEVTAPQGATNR

[2] = target: Histamine H2 receptor (Cavia porcellus) (UniProt P47747); assay: Binding constant towards histamine H2 receptor

Relative potency [1] | -Log KB [2] | Compound | ED50 (Canis familiaris)
0.51 | – | CN(C)Cc1cccc(CSCCNc2n[s+]([O-])nc2N)c1 (stereo not drawn) | 0.013 mg/kg
0.84 | – | CN(C)Cc1cccc(CSCCNc2n[s+]([O-])nc2N)n1 (stereo not drawn) | 0.17 mg/kg
0.31 | 6.85 | CN(C)Cc1ccc(CSCCNc2n[s+]([O-])nc2N)[nH]1 (stereo not drawn) | 0.17 mg/kg
– | – | CN(C)Cc1ccc(CSCCNc2n[s+]([O-])nc2N)s1 (stereo not drawn) | 0.008 mg/kg
